Measurements from patent US9637472B2, “Substituted 6,5-fused bicyclic heteroaryl compounds” (Epizyme, Inc., priority 2011, dated 2017).

Target: EZH2 (Homo sapiens (Human), UniProt Q15910)
Assay: PRC2 enzyme assay on peptide substrates
Format: biochemical
Settings: PRC2 enzyme assays on peptide substrates; 4 nM enzyme, 30 min preincubation at 25° C.; read-out: EZH2 IC50

EZH2, sequence (Q15910 other isoform, or with tags, fused parts or gaps): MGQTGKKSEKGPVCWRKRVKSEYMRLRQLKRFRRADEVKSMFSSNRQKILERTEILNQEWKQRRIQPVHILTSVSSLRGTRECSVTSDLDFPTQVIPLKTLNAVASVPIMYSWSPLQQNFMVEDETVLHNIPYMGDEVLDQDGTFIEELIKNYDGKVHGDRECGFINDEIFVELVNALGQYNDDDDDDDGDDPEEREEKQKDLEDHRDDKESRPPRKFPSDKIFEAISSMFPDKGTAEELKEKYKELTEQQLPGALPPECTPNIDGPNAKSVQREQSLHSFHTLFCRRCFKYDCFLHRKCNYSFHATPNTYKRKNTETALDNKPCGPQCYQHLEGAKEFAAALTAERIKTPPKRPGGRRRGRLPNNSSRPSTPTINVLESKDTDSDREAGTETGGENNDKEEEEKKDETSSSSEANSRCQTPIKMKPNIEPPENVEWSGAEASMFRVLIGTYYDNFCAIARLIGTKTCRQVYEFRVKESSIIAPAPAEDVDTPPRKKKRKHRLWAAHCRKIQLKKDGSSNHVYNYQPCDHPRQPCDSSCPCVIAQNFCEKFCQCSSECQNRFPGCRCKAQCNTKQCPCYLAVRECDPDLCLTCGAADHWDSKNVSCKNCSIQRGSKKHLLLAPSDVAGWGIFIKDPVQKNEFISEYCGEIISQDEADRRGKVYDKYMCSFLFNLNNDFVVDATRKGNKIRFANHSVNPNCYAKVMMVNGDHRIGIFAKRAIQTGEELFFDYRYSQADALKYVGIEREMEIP
EZH2, sequence (O75530 whole entry partner): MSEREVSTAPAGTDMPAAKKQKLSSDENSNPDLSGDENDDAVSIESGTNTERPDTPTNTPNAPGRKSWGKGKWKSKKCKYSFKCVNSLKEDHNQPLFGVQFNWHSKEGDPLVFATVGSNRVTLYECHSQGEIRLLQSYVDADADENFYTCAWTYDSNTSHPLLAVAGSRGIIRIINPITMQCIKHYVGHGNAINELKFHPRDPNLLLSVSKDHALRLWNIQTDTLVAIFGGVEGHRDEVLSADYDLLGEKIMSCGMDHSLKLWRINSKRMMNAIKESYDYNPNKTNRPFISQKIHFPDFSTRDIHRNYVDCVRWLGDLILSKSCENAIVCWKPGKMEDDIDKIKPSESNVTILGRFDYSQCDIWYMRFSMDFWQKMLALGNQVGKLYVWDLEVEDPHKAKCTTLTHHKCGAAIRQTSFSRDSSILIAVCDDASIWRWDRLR
EZH2, sequence (Q15022 whole entry partner): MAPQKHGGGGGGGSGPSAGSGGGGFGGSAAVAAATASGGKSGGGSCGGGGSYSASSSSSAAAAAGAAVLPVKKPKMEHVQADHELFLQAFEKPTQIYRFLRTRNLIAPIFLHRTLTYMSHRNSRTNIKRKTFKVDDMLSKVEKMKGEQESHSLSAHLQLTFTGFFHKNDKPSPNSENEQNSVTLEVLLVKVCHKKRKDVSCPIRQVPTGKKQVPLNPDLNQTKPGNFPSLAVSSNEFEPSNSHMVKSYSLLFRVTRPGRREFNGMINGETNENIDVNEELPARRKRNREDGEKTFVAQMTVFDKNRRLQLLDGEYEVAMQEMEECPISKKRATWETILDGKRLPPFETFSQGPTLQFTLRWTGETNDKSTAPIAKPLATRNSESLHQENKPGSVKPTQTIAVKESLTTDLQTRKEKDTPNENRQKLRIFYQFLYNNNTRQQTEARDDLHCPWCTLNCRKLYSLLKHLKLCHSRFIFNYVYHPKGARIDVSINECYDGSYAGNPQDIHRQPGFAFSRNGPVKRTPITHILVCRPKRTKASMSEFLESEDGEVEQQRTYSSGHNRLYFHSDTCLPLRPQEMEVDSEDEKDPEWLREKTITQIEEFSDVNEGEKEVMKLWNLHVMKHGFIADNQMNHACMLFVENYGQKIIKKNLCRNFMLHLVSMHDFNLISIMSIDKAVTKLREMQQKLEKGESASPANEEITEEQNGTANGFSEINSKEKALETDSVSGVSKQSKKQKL
EZH2, sequence (Q09028 whole entry partner): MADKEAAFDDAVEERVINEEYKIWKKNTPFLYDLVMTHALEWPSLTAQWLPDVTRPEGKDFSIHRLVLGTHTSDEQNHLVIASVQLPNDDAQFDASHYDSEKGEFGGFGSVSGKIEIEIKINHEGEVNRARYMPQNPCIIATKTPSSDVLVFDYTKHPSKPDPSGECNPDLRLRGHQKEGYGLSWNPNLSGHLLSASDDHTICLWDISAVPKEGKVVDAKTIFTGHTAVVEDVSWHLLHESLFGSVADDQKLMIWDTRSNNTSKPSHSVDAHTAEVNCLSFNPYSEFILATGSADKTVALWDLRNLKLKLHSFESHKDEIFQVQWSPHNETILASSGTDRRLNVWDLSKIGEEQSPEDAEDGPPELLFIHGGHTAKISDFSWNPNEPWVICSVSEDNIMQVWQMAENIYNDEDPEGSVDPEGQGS

Structure (SMILES)	IC50 [µM]
Cc1cc(C)c(CNC(=O)c2cc(-c3ccc(COCCCN(C)C)cc3)cc3c2cnn3C2CCCC2)c(=O)[nH]1 [Compound C-4, 1-cyclopentyl-N-((4,6-dimethyl-2-oxo-1,2-dihydropyridin-3-yl)methyl)-6-(4-((3-(dimethylamino)propoxy)methyl)phenyl)-1H-indazole-4-carboxamide]	< 0.3
Cc1cc(C)c(CNC(=O)c2cc(Br)cc3c2cnn3C2CCN(C(=O)C3CCNCC3)CC2)c(=O)[nH]1 [Compound D-52]	< 0.3
Cc1cc(C)c(CNC(=O)c2cc(N3CCC(N4CCN(C)CC4)CC3)nc3c2cnn3C(C)C)c(=O)[nH]1 [Compound B-106]	1 to 3
Cc1cc(C)c(CNC(=O)c2cc(-c3cccc(CN4CCN(C)CC4)c3)cc3c2cnn3C(C)C)c(=O)[nH]1 [Compound C-24]	< 0.3
Cc1cc(C)c(CNC(=O)c2cc(C3=CCN(CCO)CC3)cc3c2cnn3C2CCCC2)c(=O)[nH]1 [Compound D-95]	< 0.3
Cc1cc(C)c(CNC(=O)c2cc(C3=CC(C)(C)NC(C)(C)C3)cc3c2cnn3C2CCN(C(=O)C(C)(C)C)CC2)c(=O)[nH]1 [Compound D-25]	< 0.3
Cc1cc(C)c(CNC(=O)c2cc(-c3ccc(COCCN4CCOCC4)cc3)cc3c2cnn3C2CCCC2)c(=O)[nH]1 [Compound C-20]	< 0.3
CC(C)n1ncc2c(C(=O)NCc3cc4c([nH]c3=O)CCNC4)cc(-c3ccc4c(c3)OCCO4)nc21 [Compound A-71]	10 to 50
CCc1ccc(CNC(=O)c2cc(-c3ccc4c(c3)OCCO4)nc3c2cnn3C(C)C)c(=O)[nH]1 [Compound A-110]	10 to 50
Cc1ccc(CNC(=O)c2cc(-c3cccc(CN4CCN(C)CC4)c3)nc3c2cnn3C(C)C)c(=O)[nH]1 [Compound A-100]	10 to 50
CCc1cc(C(=O)NCc2c(C)cc(C)[nH]c2=O)c2cnn(C3CCCC3)c2c1 [Compound D-60]	0.3 to 1
Cc1cc(C)c(CNC(=O)c2cc(C3=CCN(C(=O)[C@H](C)N)CC3)nc3c2cnn3C(C)C)c(=O)[nH]1 [Compound B-46]	0.3 to 1
Cc1cc(C)c(CNC(=O)c2cc(-c3cccc(C(=O)NCCCN(C)C)c3)nc3c2cnn3C(C)C)c(=O)[nH]1 [Compound A-13, N-((4,6-dimethyl-2-oxo-1,2-dihydropyridin-3-yl)methyl)-6-(3-((3-(dimethylamino)propyl)carbamoyl)phenyl)-1-isopropyl-1H-pyrazolo[3,4-b]pyridine-4-carboxamide]	< 0.3
Cc1cc(C)c(CNC(=O)c2cc(C3CCN(C(=O)CCN)CC3)nc3c2cnn3C(C)C)c(=O)[nH]1 [Compound B-62]	0.3 to 1
Cc1cc(C)c(CNC(=O)c2cc(C3=CCN(C(=O)C4CNC4)CC3)cc3c2cnn3C2CCCC2)c(=O)[nH]1 [Compound D-37]	< 0.3
CC(=O)N1CC(n2ncc3c(C(=O)NCc4c(C)cc(C)[nH]c4=O)cc(Br)cc32)C1 [Compound D-35]	1 to 3
CC1=CC(C)=C(CNC(=O)c2cc(-c3cccc(CNCCCN(C)C)c3)nc3c2cnn3C(C)C)C(C)N1 (stereo not shown) [Compound A-125]	1 to 3
Cc1cc(C)c(CNC(=O)c2cc(Br)cc3c2cnn3C2CCN(C(=O)CN(C)C)CC2)c(=O)[nH]1 [Compound D-29]	0.3 to 1
Cc1cc(C)c(CNC(=O)c2cc(-c3ccc(-c4ccccc4CN)nc3)nc3c2cnn3C(C)C)c(=O)[nH]1 [Compound A-68]	3 to 10
Cc1cc(C)c(CNC(=O)c2cc(-c3ccc(N4CCNCC4)nc3)nc3c2cnn3C(C)C)c(=O)[nH]1 [Compound A-10, N-((4,6-dimethyl-2-oxo-1,2-dihydropyridin-3-yl)methyl)-1-isopropyl-6-(6-(piperazin-1-yl)pyridin-3-yl)-1H-pyrazolo[3,4-b]pyridine-4-carboxamide]	< 0.3
Cc1cc(C)c(CNC(=O)c2cc(C3=CCN(C(=O)C4CCN(C)C4)CC3)nc3c2cnn3C(C)C)c(=O)[nH]1 (stereo not shown) [Compound B-31, N-((4,6-dimethyl-2-oxo-1,2-dihydropyridin-3-yl)methyl)-1-isopropyl-6-(1-(1-methylpyrrolidine-3-carbonyl)-1,2,3,6-tetrahydropyridin-4-yl)-1H-pyrazolo[3,4-b]pyridine-4-carboxamide]	< 0.3
Cc1cc(C)c(CNC(=O)c2cc(Br)cc3c2cnn3C2CCN(C(=O)C(C)C)CC2)c(=O)[nH]1 [Compound D-42]	< 0.3
Cc1cc(C)c(CNC(=O)c2cc(-c3ccc(C)c(S(N)(=O)=O)c3)cc3c2cnn3C2CCCC2)c(=O)[nH]1 [Compound C-16]	< 0.3
Cc1cc(C)c(CNC(=O)c2cc(C(=O)N3CCN(C)CC3)nc3c2cnn3C(C)C)c(=O)[nH]1 [Compound B-138]	3 to 10
Cc1cc(C)c(CNC(=O)c2cc(N3CCC(N4CCN(CCS(C)(=O)=O)CC4)CC3)nc3c2cnn3C(C)C)c(=O)[nH]1 [Compound B-102]	1 to 3
Cc1cc(C)c(CNC(=O)c2cc(C3=CCN(C(=O)C4CNC4)CC3)nc3c2cnn3C(C)C)c(=O)[nH]1 [Compound B-30, 6-(1-(azetidine-3-carbonyl)-1,2,3,6-tetrahydropyridin-4-yl)-N-((4,6-dimethyl-2-oxo-1,2-dihydropyridin-3-yl)methyl)-1-isopropyl-1H-pyrazolo[3,4-b]pyridine-4-carboxamide]	< 0.3
COC(=O)/C=C/Cn1ncc2c(C(=O)NCc3c(C)cc(C)[nH]c3=O)cc(C3=CC(C)(C)NC(C)(C)C3)nc21 [Compound B-124]	3 to 10
Cc1cc(COCCN(C)C)c(CNC(=O)c2cc(Br)cc3c2cnn3C2CCCC2)c(=O)[nH]1 [Compound D-85]	3 to 10

Structure (SMILES)	IC50 [µM]
Cc1cc(C)c(CNC(=O)c2cc(CO)nc3c2cnn3C(C)C)c(=O)[nH]1 [Compound B-113]	1 to 3
Cc1cc(C)c(CNC(=O)c2cc(-c3ccnc(N4CCNCC4)c3)nc3c2cnn3C(C)C)c(=O)[nH]1 [Compound A-37]	0.3 to 1
Cc1cc(C)c(CNC(=O)c2cc(-c3ccc(CN(C)C)cc3)cc3c2cnn3C2CCN(C(=O)C(C)(C)C)CC2)c(=O)[nH]1 [Compound C-31]	< 0.3
Cc1cc(C)c(CNC(=O)c2cc(C3=CCN(C4CCN(S(C)(=O)=O)CC4)CC3)nc3c2cnn3C(C)C)c(=O)[nH]1 [Compound B-40]	0.3 to 1
Cc1cc(C)c(CNC(=O)c2cc(-c3cccc(CN(C)CCN)c3)nc3c2cnn3C(C)C)c(=O)[nH]1 [Compound A-34]	0.3 to 1
Cc1cc(C)c(CNC(=O)c2cc(-c3ccc(CN4CCOCC4)nc3)cc3c2cnn3C2CCCC2)c(=O)[nH]1 [Compound C-2, 1-cyclopentyl-N-((4,6-dimethyl-2-oxo-1,2-dihydropyridin-3-yl)methyl)-6-(6-(morpholinomethyl)pyridin-3-yl)-1H-indazole-4-carboxamide]	< 0.3
Cc1cc(C)c(CNC(=O)c2cc(CN3CCN(C)CC3)cc3c2cnn3C2CCCC2)c(=O)[nH]1 [Compound D-7]	< 0.3
Cc1cc(C)c(CNC(=O)c2cc(C3CCN(C4CCN(CCS(C)(=O)=O)CC4)CC3)nc3c2cnn3C(C)C)c(=O)[nH]1 [Compound B-55]	0.3 to 1
Cc1cc(CN(C)C)c(CNC(=O)c2cc(Br)cc3c2cnn3C2CCCC2)c(=O)[nH]1 [Compound D-17, 6-bromo-1-cyclopentyl-N-((4-((dimethylamino)methyl)-6-methyl-2-oxo-1,2-dihydropyridin-3-yl)methyl)-1H-indazole-4-carboxamide]	< 0.3
Cc1cc(C)c(CNC(=O)c2cc(-c3ccc(CN(C)C)cc3)nc3c2cnn3C(C)C)c(=O)[nH]1 [Compound A-22]	0.3 to 1
CCn1ncc2c(C(=O)NCc3c(C)cc(C)[nH]c3=O)cc(C3=CC(C)(C)NC(C)(C)C3)nc21 [Compound B-131]	3 to 10
Cc1cc(C)c(CNC(=O)c2cc(N3CCOCC3)nc3c2cnn3C(C)C)c(=O)[nH]1 [Compound B-98]	1 to 3
Cc1cc(C)c(CNC(=O)c2cc(-c3ccc(CN4CCOCC4)cc3Cl)cc3c2cnn3C2CCCC2)c(=O)[nH]1 [Compound C-32]	< 0.3
Cc1cc(C)c(CNC(=O)c2cc(-c3cccc(COCCN)c3)cc3c2cnn3C2CCCC2)c(=O)[nH]1 [Compound C-23]	< 0.3
Cc1cc(C)c(CNC(=O)c2cc(-c3cnn(C)c3)nc3c2cnn3C(C)C)c(=O)[nH]1 [Compound A-48]	1 to 3
Cc1cc(CN2CCN(C)CC2)c(CNC(=O)c2cccc3c2cnn3C2CCCC2)c(=O)[nH]1 [Compound D-74]	1 to 3
Cc1cc(C)c(CNC(=O)c2cc(C3=CCN(C(=O)[C@@H](N)CO)CC3)nc3c2cnn3C(C)C)c(=O)[nH]1 [Compound B-66]	0.3 to 1
Cc1cc(CN(C)CCCN(C)C)c(CNC(=O)c2cc(Br)cc3c2cnn3C2CCCC2)c(=O)[nH]1 [Compound D-62]	0.3 to 1
Cc1cc(C)c(CNC(=O)c2cc(C3=CCN(CCC(F)(F)F)CC3)nc3c2cnn3C(C)C)c(=O)[nH]1 [Compound B-84]	0.3 to 1
Cc1cc(C)c(CNC(=O)c2cc(C3=CC(C)(C)NC(C)(C)C3)nc3c2cnn3CC(F)(F)F)c(=O)[nH]1 [Compound B-164]	3 to 10
Cc1cc(C)c(CNC(=O)c2cc(Br)cc3c2cnn3C2CCN(C(=O)C3CCOCC3)CC2)c(=O)[nH]1 [Compound D-28]	0.3 to 1
Cc1cc(C)c(CNC(=O)c2cc(C3=CCN(C(=O)CN(C)C)CC3)cc3c2cnn3C2CCCC2)c(=O)[nH]1 [Compound D-38]	< 0.3
Cc1cc(CO)c(CNC(=O)c2cccc3c2cnn3C2CCCC2)c(=O)[nH]1 [Compound D-88]	10 to 50
Cc1cc(C)c(CNC(=O)c2cc(-c3ccc(CN(C)C)cc3)cc3c2cnn3C2CCCC2)c(=O)[nH]1 [Compound C-3, 1-cyclopentyl-N-((4,6-dimethyl-2-oxo-1,2-dihydropyridin-3-yl)methyl)-6-(4-((dimethylamino)methyl)phenyl)-1H-indazole-4-carboxamide]	< 0.3
Cc1cc(C)c(CN(C)C(=O)c2cc(-c3cccc(CN4CCN(C)CC4)c3)nc3c2cnn3C(C)C)c(=O)[nH]1 [Compound A-73]	10 to 50
Cc1cc[nH]c(=O)c1CNC(=O)c1cc(-c2ccc3c(c2)OCCO3)nc2c1cnn2C(C)C [Compound A-77]	10 to 50
Cc1cc(C)c(CNC(=O)c2cc(C3CCN(C(=O)[C@@H](N)CO)CC3)nc3c2cnn3C(C)C)c(=O)[nH]1 [Compound B-100]	1 to 3
